Data published in PMC3909494 (Molecular cell, 2013).

Target: T1, TmMre11 (Thermotoga maritima Mre11 (1–324)) (Thermotoga maritima, UniProt Q9X1X0)
T1 sequence (Q9X1X0 1-324): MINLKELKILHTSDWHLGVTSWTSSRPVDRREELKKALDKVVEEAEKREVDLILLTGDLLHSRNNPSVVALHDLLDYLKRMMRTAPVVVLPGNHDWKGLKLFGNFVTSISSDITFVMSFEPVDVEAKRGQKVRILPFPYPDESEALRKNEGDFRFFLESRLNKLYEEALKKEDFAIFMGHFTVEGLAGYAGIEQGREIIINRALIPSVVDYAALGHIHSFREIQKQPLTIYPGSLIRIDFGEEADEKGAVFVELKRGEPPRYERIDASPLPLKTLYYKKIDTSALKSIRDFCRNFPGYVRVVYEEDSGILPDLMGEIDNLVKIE
Test: exonuclease assay
Assay type: biochemical
Settings: conditions only in supplement

N=C1NC(=O)/C(=C/c2ccc(O)cc2)S1 [mirin]
inhibition of exonuclease activity: Nuclease assays using TmMre11
